According to patent US8173840B2, “Compounds with high therapeutic index” (Signature R&D Holdings, LLC, priority 2003, dated 2012):
Values joined by “and” are separate entries in the source; they are usually repeats but may differ in a detail not shown here. Identical values can stand only once.

Tests used:
Swiss Albino Mice = experiment: 28-day chronic toxicity study of ibuprofen esters; conditions: 28 days
From the text: Randomization was done by the method of stratified randomization procedure using SAS software program (Version 8.2) with stratification by bodyweight.
The duration of dosing was 28 days. All the animals were daily tested until the end of the study for the presence/absence of clinical symptoms of toxicity. Cage side observations included changes in the skin, eyes, posture, gait, respiration and behavior pattern. The incidence of twitching, tremors, convulsions, salivation, diarrhea and death if any, were also recorded.

[1] = system: male albino mice (Swiss strain); experiment: Acetylcholine induced abdominal constriction (writhe) method; assay type: in vivo, mouse; conditions: for Number of animals showing absence of single writhe (number of animals per dose = 10), One hour after dosing / Number of animals showing absence of single writhe (number of animals per dose = 10), Three hours after dosing: gavage
Experimental: Ibuprofen (racemic mixture) and ibuprofen (S)-(+) served as reference controls.
The study was conducted at two dose levels viz. 50 mg and 100 mg/kg body weight along with a vehicle control group. At each dose level 10 animals were used. All the doses were expressed as ibuprofen molar equivalents. The doses used as well as the molar equivalents are presented below.
The efficacy in terms of antagonizing effect on acetylcholine induced single writhe at two dose levels—50.0 and 100.0 mg/kg for the three formulations and reference controls are presented below.

rats = experiment: Hypolipidemic property, blood triglycerides in rats on high sugar diet; assay type: in vivo, rat; conditions: for anti-hyperlipidemic properties: compared with Fenofibrate; for Triglycerides, Day 7 / Triglycerides, Day zero / Triglycerides, Day 14: individual animals; for Triglycerides, Day 7: after 1 week high sugar diet, before drug; for Triglycerides, Day zero: before diet and drug; for Triglycerides, Day 14: drug day 7-14
Experimental: Rats were checked for time zero triglyceride level in blood. Then the rats were set on high sugar diet, such as 30% sucrose in water for 1 week. Then at the end of 1 week, rats were tested for triglycerides, and were put on normal diet. From day 7-14 the rats were administered either test or control drug. Triglycerides were again tested on the 14th day in rat blood.

[2] = system: albino mice (Swiss strain); experiment: 14 day repeated dose toxicity study, intravenous route, propofol esters
Experimental: by conducting a 14 day repeated dose toxicity study through intravenous route using albino mice as test system.
Propofol and its derivatives above were administered to albino mice (Swiss strain), through intravenous route daily for a period of 14 days using sterile sodium chloride solution as vehicle. The study was conducted at one dose level only along with a vehicle control group as per the recommendation of the Sponsor.
The doses were selected as per the recommendation of the Sponsor. The test doses are expressed as Propofol molar equivalents.

albino mouse = experiment: Anesthetic effect in male albino mice, righting reflex as index; conditions: low, intermediate, high dose
From the text: However the doses of low, intermediate and high for different formulations and reference control were different.
The different doses for each formulation and reference control were selected based on the recommendation of Sponsor. All the doses were expressed as propofol molar equivalents.

[3] = 50.0 mg/kg in terms of Ibuprofen
[4] = 100.0 mg/kg in terms of Ibuprofen

SMILES | Number of animals showing absence of single writhe (number of animals per dose = 10), One hour after dosing [1, 3] | Number of animals showing absence of single writhe (number of animals per dose = 10), Three hours after dosing [1, 3] | Number of animals showing absence of single writhe (number of animals per dose = 10), One hour after dosing [1, 4] | Number of animals showing absence of single writhe (number of animals per dose = 10), Three hours after dosing [1, 4] | % Change From day 0 (rats; Dose 25 mg/kg) | % Change from day 7 (rats; Dose 25 mg/kg) | Absolute Change from day 0 (rats; Dose 25 mg/kg) | Absolute Change from day 7 (rats; Dose 25 mg/kg) | % Change From day 0 (rats; Dose 50 mg/kg) | % Change from day 7 (rats; Dose 50 mg/kg) | Absolute Change from day 0 (rats; Dose 50 mg/kg) | Absolute Change from day 7 (rats; Dose 50 mg/kg) | % Change From day 0 (rats; Dose 100 mg/kg) | % Change from day 7 (rats; Dose 100 mg/kg) | Absolute Change from day 0 (rats; Dose 100 mg/kg) | Absolute Change from day 7 (rats; Dose 100 mg/kg) | other results
CC(C)Cc1ccc(C(C)C(=O)O[C@H]2CN[C@H](C(=O)O)C2)cc1 (mixture of isomers) [(±)-Ibuprofen-L-hydroxyproline ester, 4(R)-[2-(4-Isobutyl-phenyl)-propionyloxy]-pyrrolidine-2(S)-carboxylic acid] [listing 1 of 2 here] | – | – | – | – | – | – | – | – | – | – | – | – | – | – | – | – | No of animals survived (Swiss Albino Mice; 10 animals per group): 9; animals that died (Swiss Albino Mice; both sexes): 10%; Mortality (Swiss Albino Mice; Female): 1/5; Mortality (Swiss Albino Mice; Male): Nil; Average Change In body Weight (Swiss Albino Mice; surviving animals): 1.43 gms; Percentage Change of body weight (Swiss Albino Mice; surviving animals): 5.75%
CC(C)Cc1ccc(C(C)C(=O)OC[C@H](N)C(=O)O)cc1.Cl (mixture of isomers) [(±)-Ibuprofen-L-serine ester, 2(S)-Amino-3-[2(R,S)-(4-isobutylphenyl)-propionyloxy]-propionic acid, hydrochloride] | 4 | 2 | 6 | 4 | – | – | – | – | – | – | – | – | – | – | – | – | –
CC(C)Cc1ccc(C(C)C(=O)O[C@H]2CN[C@H](C(=O)O)C2)cc1 (mixture of isomers) [(±)-Ibuprofen-L-hydroxyproline ester, 4(R)-[2-(4-Isobutyl-phenyl)-propionyloxy]-pyrrolidine-2(S)-carboxylic acid] [listing 2 of 2 here] | 5 | 4 | 7 | 7 | – | – | – | – | – | – | – | – | – | – | – | – | antagonizing the acetylcholine induced writhe, clinical observation ([1]; compared to other formulations, Ibuprofen (racemic) and Ibuprofen (S)-(+)): more effective in antagonizing the acetylcholine induced writhe
CC(C)(Oc1ccc(C(=O)c2ccc(Cl)cc2)cc1)C(=O)OC1CN[C@H](C(=O)O)C1.Cl (stereo partly drawn) [Fen-HP Ester, L-hydroxyproline-fenofibric acid ester, hydrochloride] | – | – | – | – | −32.92% | −59.45% | −16 | −47.8 | −49.31% | −65.80% | −35.8 | −70.8 | −7.52% | −72.82% | −3.4 | −112 | –
C[C@@H](OC(=O)C(C)(C)Oc1ccc(C(=O)c2ccc(Cl)cc2)cc1)[C@H](N)C(=O)O.Cl [Fen-T Ester, L-threonine-fenofibric acid ester, hydrochloride] | – | – | – | – | −23.21% | −37.68% | −18.2 | −36.4 | −35.00% | −63.71% | −23.8 | −77.6 | −68.45% | −75.04% | −63.8 | −88.4 | anti-hyperlipidemic properties (rats; listed as Fenofibric Acid-L-Threonine ester, hydrochloride): overall superior anti-hyperlipidemic properties; anti-hyperlipidemic properties (rats; listed as L-Threonine ester, hydrochloride): dose dependent decrease in triglycerides
CC(C)OC(=O)C(C)(C)Oc1ccc(C(=O)c2ccc(Cl)cc2)cc1 [Fenofibrate, reference compound] | – | – | – | – | −15.21% | −45.86% | −10.8 | −51 | −22.95% | −66.06% | −13.4 | −87.6 | −61.26% | −73.51% | −40.8 | −71.6 | Triglycerides, Day 7 (rats; 50 mg/kg group): 150 mg/dL; Triglycerides, Day zero (rats; 50 mg/kg group): 95 mg/dL and 92 mg/dL and 80 mg/dL; Triglycerides, Day 14 (rats; 50 mg/kg): 101 mg/dL and 76 mg/dL and 73 mg/dL; Triglycerides, Day zero (rats; 100 mg/kg group): 110 mg/dL and 115 mg/dL and 96 mg/dL; Triglycerides, Day 14 (rats; 100 mg/kg): 62 mg/dL and 69 mg/dL and 93 mg/dL; Triglycerides, Day 7 (rats; 200 mg/kg group): 90 mg/dL and 106 mg/dL and 125 mg/dL; Triglycerides, Day zero (rats; 200 mg/kg group): 144 mg/dL and 56 mg/dL and 58 mg/dL; Triglycerides, Day 14 (rats; 200 mg/kg): 48 mg/dL and 51 mg/dL and 38 mg/dL
CC(C)Cc1ccc([C@H](C)C(=O)O)cc1 [Ibuprofen (S)-(+), reference compound] | 5 | 1 | 6 | 6 | – | – | – | – | – | – | – | – | – | – | – | – | –
CC(C)(Oc1ccc(C(=O)c2ccc(Cl)cc2)cc1)C(=O)OC[C@H](N)C(=O)O.Cl [L-Serine Ester of Fenofibric Acid, L-serine-fenofibric acid ester, hydrochloride] | – | – | – | – | −61.64% | −72.82% | −54 | −90 | −44.10% | −67.90% | −31.4 | −84.2 | −33.23% | −63.27% | −20.8 | −72 | Triglycerides, Day 7 (rats; 50 mg/kg group, hydrochloride): 148 mg/dL and 145 mg/dL and 127 mg/dL; Triglycerides, Day zero (rats; 50 mg/kg group, hydrochloride): 88 mg/dL and 94 mg/dL and 100 mg/dL; Triglycerides, Day 14 (rats; 50 mg/kg, hydrochloride): 86 mg/dl (2×) and 73 mg/dl; Triglycerides, Day 7 (rats; 100 mg/kg group, hydrochloride): 100 mg/dL and 183 mg/dL; Triglycerides, Day zero (rats; 100 mg/kg group, hydrochloride): 109 mg/dL and 129 mg/dL and 71 mg/dL; Triglycerides, Day 14 (rats; 100 mg/kg, hydrochloride): 46 mg/dL and 69 mg/dL and 47 mg/dL; Triglycerides, Day 7 (rats; 200 mg/kg group, hydrochloride): 240 mg/dL and 158 mg/dL and 77 mg/dL; Triglycerides, Day zero (rats; 200 mg/kg group, hydrochloride): 74 mg/dL and 81 mg/dL and 42 mg/dL; Triglycerides, Day 14 (rats; 200 mg/kg, hydrochloride): 83 mg/dL and 61 mg/dL and 46 mg/dL
CC(C)c1cccc(C(C)C)c1O [Propofol injection, 2,6-diisopropylphenol, reference compound] | – | – | – | – | – | – | – | – | – | – | – | – | – | – | – | – | feed intake ([2]; 14 days): normal and comparable to that of vehicle control group; animals exhibiting clinical symptoms of toxicity ([2]; IV daily 14 days): None of the animals; body weight gain ([2]; IV daily 14 days, compared to vehicle control): normal and comparable to that of vehicle control group of animals; dose response relation (statistical analysis) (albino mouse): statistically significant and clearly evident
